The values below come from patent publication US9182408B2 (priority 2004, dated 2015).

Like-named read-outs stand apart in the source and are kept apart here.

The target in assay [1] is NS5B protein of Hepatitis C virus (Hepatitis C virus genotype 1b, UniProt P26663). The conditions noted are these: NS5BΔ21 bait, medium without Histidine; Gliotoxin 20 μM.
Experimental: Yeast two-hybrid experiments are carried out in the yeast strain (MATa; his3-Δ200; leu2-3,112; trp1-901; [plexAop]4::HIS3; [plexAop]8::lacZ), in which expression of the two reporter genes HIS3 and LacZ is under the control of the LexA operator sequence. This yeast strain cannot grow in absence of histidine in the culture medium, and yeast growth can be rescued only if expression of HIS3 gene is induced. Similarly, the LacZ reporter gene encoding the β-galactosidase marker is not expressed in this yeast strain. The bait plasmids encoding either the full-length or a region of the target protein (Nuclear Receptor, viral proteins for example), and the random peptide/VP16-AD library were transformed into the yeast strain and yeast colonies growing in absence of histidine were selected. […] Growth of false positive clones may be prevented by adding 3-amino-triazole (3AT), a competitive inhibitor of HIS3, to the medium. […] The biological activity of each isolated conformation sensitive peptide is reconfirmed by isolation of conformation sensitive peptide encoding plasmids, re-transformation into yeast strain and analysis of HIS3 and lacZ gene expression in absence of histidine and in presence of target protein or non-target protein ligands in a spot test, as well as in a quantitative LacZ assay. […]
Assay [2] has as its target human retinoic acid receptor alpha (RARα) (Homo sapiens, UniProt P10276). The settings on record: RAR-DEF bait, 28 selected clones, medium without histidine. The protocol: (§1) Yeast two-hybrid experiments are carried out in the yeast strain (MATa; his3-Δ200; leu2-3,112; trp1-901; [plexAop]4::HIS3; [plexAop]8::lacZ), in which expression of the two reporter genes HIS3 and LacZ is under the control of the LexA operator sequence. This yeast strain cannot grow in absence of histidine in the culture medium, and yeast growth can be rescued only if expression of HIS3 gene is induced. Similarly, the LacZ reporter gene encoding the β-galactosidase marker is not expressed in this yeast strain. The bait plasmids encoding either the full-length or a region of the target protein (Nuclear Receptor, viral proteins for example), and the random peptide/VP16-AD library were transformed into the yeast strain and yeast colonies growing in absence of histidine were selected. […] Growth of false positive clones may be prevented by adding 3-amino-triazole (3AT), a competitive inhibitor of HIS3, to the medium. […] All conformation sensitive peptides dissociated by both target protein agonists and antagonists were selected for further characterization with the aim to develop screening platforms that allow the search of both activators and inhibitors of target protein in one single assay. The biological activity of each isolated conformation sensitive peptide is reconfirmed by isolation of conformation sensitive peptide encoding plasmids, re-transformation into yeast strain and analysis of HIS3 and lacZ gene expression in absence of histidine and in presence of target protein or non-target protein ligands in a spot test, as well as in a quantitative LacZ assay. 4.1—Identification in Yeast of Conformation Sensitive Peptides Interacting with the Estrogen Receptor

Assay [3] has as its system ERα. The text has this: FIG. 10: Generation of a 3D-screen human cell screening platform for ERα Hela cells are transiently transfected with three expression plasmids encoding the reporter gene luciferase (eg. UAS-Luc), the target protein fused to a DNA Binding Domain (DBD) and the conformation sensitive peptide previously screened in yeast and fused to the VP16-AD, respectively with the jetPEI reagent. […] This platform was used to screen a small molecule library.
Hela cells are transiently transfected with three expression plasmids encoding the reporter gene luciferase (eg. UAS-Luc), the ERα fused to a DNA Binding Domain (DBD) and the conformation sensitive peptide previously screened in yeast and fused to the VP16-AD, respectively, with the jetPEI reagent. Cells are grown in the absence of any ligand (DMSO, lane 1; ethanol, lane 2), or in the presence of ER ligands (agonists E2, DES or antagonists 4OHT, lane 3-5) or non-ER ligands (Dex and 9C-RA; lanes 8 & 9), or in the presence of Estren (lane 6) at 100 nM (right panel) and 10 μM (left panel).
Hela cells are transiently transfected with three expression plasmids encoding the reporter gene luciferase (eg. UAS-Luc), the ERα fused to a DNA Binding Domain (DBD) and the conformation sensitive peptide previously screened in yeast and fused to the VP16-AD, respectively, with the jetPEI reagent.
HeLa cells were transiently transfected with plasmid using the optimized jetPEI transfection protocol (PolyPlus Transfection, Illkirch, France). […] Chemical ligands are added to the cell culture medium 24H after transfection. Luciferase activity was measured 24H later. […] Cells are trypsinised and plated in 96 well-plates (or 384 well-plates) at 5×10^4 cells per well 24H after transfection, and small molecules are added upon cell adhesion. Luciferase activity is measured 24 H later.
The three expression plasmids, UAS-luc, full-length ER and 3D-screen/VP16AD (#30-2) were co-transfected in Hela cells in large dishes. Cells were then reseeded in a 96-well plate format 24 H after transfection and chemical compounds are added upon cell adhesion. Luciferase activity was measured 24 H later. Internal controls were also included, consisting in known ER- or non-ER ligands as previously indicated.

The next assay has as its system bone cells. The settings on record: cited from earlier work.
For a further assay, the target named is wild-type ERα (Homo sapiens, UniProt P03372). The conditions noted are these: HeLa, ERE-luc, 24 H. As to the method: Furthermore, the potential agonist and antagonist properties of these hits were investigated in HeLa cells by co-transfection of an ERE-luc reporter plasmid, in which the luciferase gene is under the control of the estrogen-responsive elements (ERE), and an expression plasmid encoding the wild-type ERα. Transfections were performed as previously described for the primary screening, and cells are inclubated for 24 H either in the presence of the chemical hits alone to test for their agonist activity, or in the presence of the hit together with 100 nM E2 to test for their antagonist activity.

Assay [4] has as its target ERα (Homo sapiens, UniProt P03372). The protocol: as §1
The bait plasmids encoding the full length or the DEF regions of the ERα and the prey peptide/VP16-AD VV01 library (diversity of 6.10^7) were transformed into the yeast strain. Yeast colonies growing in absence of histidine were selected. […] Growth of false positive clones was prevented by adding 3-amino-triazole (3AT), a competitive inhibitor of HIS3 to the medium. […] Out of the 484 clones, 40 were randomly picked for further studies.
The biological activity of each isolated 3D-Screen peptide was reconfirmed by isolation of 3D-Screen encoding plasmids, retransformation into the yeast strain (MATa; his3-Δ200; leu2-3,112; trp1-901; [plexAop]4::HIS3; [plexAop]8::lacZ) and analysis of HIS3 and lacZ gene expression in absence of Histidine and in presence of ER or non-ER ligands in a spot test.

Sequence of ERα (Homo sapiens, UniProt P03372) (P03372 311-547 limits assumed): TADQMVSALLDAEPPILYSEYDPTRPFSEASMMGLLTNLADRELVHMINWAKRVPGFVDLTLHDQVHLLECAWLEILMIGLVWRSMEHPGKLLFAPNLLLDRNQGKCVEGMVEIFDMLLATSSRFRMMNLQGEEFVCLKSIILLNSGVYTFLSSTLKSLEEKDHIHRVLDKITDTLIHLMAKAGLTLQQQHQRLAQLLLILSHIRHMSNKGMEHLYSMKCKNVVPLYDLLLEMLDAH
Sequence of human retinoic acid receptor alpha (RARα) (P10276 183-417 limits assumed): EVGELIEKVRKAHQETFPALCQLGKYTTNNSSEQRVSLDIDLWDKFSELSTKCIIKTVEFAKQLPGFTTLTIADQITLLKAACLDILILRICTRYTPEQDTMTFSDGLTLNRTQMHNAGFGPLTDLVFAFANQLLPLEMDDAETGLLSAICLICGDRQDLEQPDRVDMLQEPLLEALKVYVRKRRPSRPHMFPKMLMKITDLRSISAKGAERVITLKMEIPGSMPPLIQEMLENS
Sequence of wild-type ERα (P03372 whole entry): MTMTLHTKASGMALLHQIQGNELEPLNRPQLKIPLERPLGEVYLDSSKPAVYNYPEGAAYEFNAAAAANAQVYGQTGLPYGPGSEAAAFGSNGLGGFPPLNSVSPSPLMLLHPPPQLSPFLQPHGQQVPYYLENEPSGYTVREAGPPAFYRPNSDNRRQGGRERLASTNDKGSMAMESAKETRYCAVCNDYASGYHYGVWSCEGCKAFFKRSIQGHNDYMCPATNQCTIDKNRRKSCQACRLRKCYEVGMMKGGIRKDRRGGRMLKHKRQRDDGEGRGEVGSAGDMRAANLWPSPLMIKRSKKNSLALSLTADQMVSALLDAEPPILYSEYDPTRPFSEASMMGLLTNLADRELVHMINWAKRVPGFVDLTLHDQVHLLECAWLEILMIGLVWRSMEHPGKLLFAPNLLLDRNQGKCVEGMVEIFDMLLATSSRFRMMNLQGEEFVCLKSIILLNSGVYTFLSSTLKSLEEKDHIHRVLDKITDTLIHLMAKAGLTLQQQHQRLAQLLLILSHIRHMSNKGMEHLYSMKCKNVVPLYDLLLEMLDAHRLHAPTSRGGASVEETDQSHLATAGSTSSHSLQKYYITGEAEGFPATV

Take `NC(=O)c1ncn([C@@H]2O[C@H](CO)[C@@H](O)[C@H]2O)n1` [ribavirin]: in assay [1], the “effect of added compound on yeast growth and HIS3/LacZ expression (dissociation of peptides from NS5B)” value is recorded as “no effect on yeast growth”.
On to `CC1=C(/C=C/C(C)=C/C=C/C(C)=C/C(=O)O)C(C)(C)CCC1` [all-trans-Retinoic Acid], for which the “effect of added ligand on growth of yeast clones (dissociation of peptide/VP16AD from RARα)” value in assay [2] is on record as “suppresses the growth of 14 of these clones”; in assay [2] (listed as AT-RA) it was “selective dissociation of the peptide/VP16AD protein induced only by the AT-RA ligand”. Further, the “luciferase expression (FIG. 13)” value in the assay with ERα [3] was “strong”.
For the molecule Estren, the “apoptosis of bone cells and effect on reproductive organs” value with bone cells is recorded as “prevent apoptosis of bone cells without affecting the reproductive organs”. Moreover, the “luciferase expression (FIG. 11)” value in the assay on ERα [3] was “preventing the expression of luciferase”. Besides, at wild-type ERα, the “agonist activity (hit alone)” value is listed as “do not allow the identification” and the “antagonist activity (hit together with 100 nM E2)” value is on record as “do not allow the identification”.
Consider “F C T P I R M F Y R A P L W D L N K [peptide 30-2]”, for which, at ERα [4], the “peptide binding to ER in the presence of non-ER ligands (growth, lacZ)” value was “all clones are growing under selective conditions and stain positive for lacZ”; the “peptide binding to ER on addition of ER ligands (growth under selective conditions)” value was “clones are not growing under selective conditions”; the “reporter genes (His3 and LacZ) on interaction of peptide with ER in the un-liganded form” value (from here on “reporter genes (His3 and LacZ)”) was “clones are growing under selective conditions and stain positive for lacZ”.
Turning to “S C C T Q H V C Y R P R A Y R [peptide 5-21]”, on ERα [4], the “peptide binding to ER in the presence of non-ER ligands (growth, lacZ)” value was “all clones are growing under selective conditions and stain positive for lacZ”; the “peptide binding to ER on addition of ER ligands (growth under selective conditions)” value was “clones are not growing under selective conditions”; the “reporter genes (His3 and LacZ)” value is “clones are growing under selective conditions and stain positive for lacZ”.
For the molecule “S I T T L F Y H A M F G F V P [peptide 9-23]”, on ERα [4], the “peptide binding to ER in the presence of non-ER ligands (growth, lacZ)” value is “all clones are growing under selective conditions and stain positive for lacZ”; the “peptide binding to ER on addition of ER ligands (growth under selective conditions)” value is “clones are not growing under selective conditions”; the “reporter genes (His3 and LacZ)” value is “clones are growing under selective conditions and stain positive for lacZ”.
On to `CN1C(=O)[C@]23CC4=CC=C[C@H](O)[C@H]4N2C(=O)[C@@]1(CO)SS3` [gliotoxin], for which the “effect of added compound on yeast growth and HIS3/LacZ expression (dissociation of peptides from NS5B)” value in assay [1] was “shut-off of HIS3 and the prevention of growth of the yeast”.
With `C[C@]12CC[C@@H]3c4ccc(O)cc4C[C@@H](CCCCCCCCC[S+]([O-])CCCC(F)(F)C(F)(F)F)[C@H]3[C@@H]1CC[C@@H]2O` (stereo partly drawn) [ICI182780], in the assay with ERα [3], the “luciferase expression (FIG. 13)” value is recorded as “preventing the expression of luciferase” and the “luciferase expression upon addition of ligand” value is reported as “strongly reduced”.
9-cis retinoic acid: the “effect of added ligand on growth of yeast clones (dissociation of peptide/VP16AD from RARα)” value in assay [2] is “suppresses the growth of 14 of these clones”. In the assay on ERα [3], the “luciferase expression (FIG. 11)” value is “strong” and the “luciferase expression (FIG. 13)” value is “strong”. For the same molecule, the “effect of added ligand on growth and LacZ expression of yeast clones (dissociation of peptide/VP16AD from ERα)” value at ERα [4] is given as “no effect”.
